Measured values as given in patent publication US20070286896A1, “Therapeutic or Diagnostic Drug for Inflammatory Disease Comprising Targeting Liposome” (NATIONAL INSTITUTE OF ADVANCED INDUSTRIAL SCIENCE AND …, priority 2003, published 2007).

Columns and labels:
Assay type in all cases: in vivo, DBA/1J mice
[1] = test system: Collagen type II induced arthritis (CIA) mice; assay: Medical treatment of RA mice by oral administration of DDS liposomes; settings: oral three times/week Day 28 to Day 39; free Pred 100 μg, L-Pred 10 μg per administration
Experimental: (§1) A water solution of the collagen and the CFA were mixed at a volume ratio of 2:1 to prepare an emulsion containing 200 μg of the collagen per 100 μL thereof. This emulsion was subcutaneously injected into the bottom of the tails of the mice (Day 0). After 21 days from the administration (Day 21), a water solution of the collagen and the IFA were mixed at a volume ratio of 2:1 to prepare an emulsion containing 200 μg of the collagen per 100 μL thereof, and this emulsion was subcutaneously injected again into the bottom of the tails of the mice.
(§2) After the injection, the limbs of the mice were observed on a three times/week basis, and inflammation was quantitatively determined by giving it a point according to the following criteria: for each limb, normal: 0 point, mild inflammation or redness: 1 point, severe redness, dilatation, or reduced use: 2 points, and deformed palm, plantar region, or joint region: 3 points (0 point lowest, 12 points highest, per mouse). Inflammatory activity (hereinafter, referred to as IA) was determined by applying the obtained point to the following formula: Inflammatory activity (%)=points of all limbs/12×100.
Mice with arthritis received medical treatment by orally administering a therapeutic drug to the mice. The oral administration was performed on a three times/week basis for a period from Day 28 to Day 39. […]

[2] = test system: Collagen type II induced arthritis (CIA) mice; assay: Test for determining proper amount of prednisolone phosphate for RA mice; settings: Day 28 to Day 46
[3] = test system: Collagen type II induced arthritis (CIA) mice; assay: Medical treatment of RA mice by intravenous administration of DDS liposomes
Experimental: as §1, §2
Mice with arthritis received medical treatment by injecting a therapeutic drug to the tail veins thereof. The intravenous injection was performed on a twice/week basis for a period from Day 28 to Day 46. […]

C[C@]12C=CC(=O)C=C1CC[C@@H]1[C@@H]2[C@@H](O)C[C@@]2(C)[C@H]1CC[C@]2(O)C(=O)COP(=O)(O)O [prednisolone phosphate]
difference in IA among the control, free Pred (until Day 32) and L-Pred groups [1]: no significant difference | IA compared with control group ([2]; intravenous 250 μg/injection (500 μg/week)): No significant difference | rise in IA / progression of the inflammation ([2]; intravenous 500 μg/injection (1000 μg/week)): a rise in IA was not observed, and the progression of the inflammation was suppressed | Inflammatory activity (IA) ([3]; intravenous 100 μg/injection (200 μg/week) prednisolone phosphate, Day 37): approximately 50% | IA compared with other groups / progression of inflammation ([3]; intravenous twice/week Day 28 to Day 46, free Pred 100 μg/injection, liposomes 10 μg/injection): no evident difference was observed between the IA of the free Pred group and the IA of the Control group
